Assay results as given in US7544710B2 (Les Laboratoires Servier, priority 2002, dated 2009).

System: animals
Assay: In vivo study with a different strontium salt (strontium chloride)

[Cl-].[Cl-].[Sr+2] [strontium chloride] was tested, and the “superficial haemorrhagic lesions in the animals treated” value was “very rapidly caused superficial haemorrhagic lesions”.
